Experiment [1] concerns swine coronary arteries. Description: In vitro vasorelaxation in isolated swine coronary arteries. The class given is cell-based. As to the method:
Swine coronary arteries are obtained from a local slaughter house, dissected carefully and cleaned of fat, blood and adhering tissue. Rings approximately 2-3 mm wide are cut and transferred to water-jacketed tissue baths (10 mL) filled with warm (37° C.), oxygenated (O2/CO2:95%/5%) Krebs-Henseleit buffer and mounted on L-shaped hooks between stainless steel rods and a force transducer. […] PGF2a, before being exposed to 3 μM PGF2a.

Experiment [2] deals with normotensive anesthetized rat. Put plainly: Mean arterial blood pressure and heart rate in normotensive anesthetized rat. The following applies: for Anesthetized Rat HR/ED25: intravenous dose lowering heart rate by 25%; for Anesthetized Rat MAP/ED25: intravenous dose lowering mean arterial pressure by 25%. The class given is in vivo. How it is done:
Normotensive rats are anesthetized with sodium pentobarbital (50 mg/kg, i.p.) and placed on a heated surgical table. Cannulas are inserted into the femoral artery and veined to allow the measurement of arterial pressure and to facilitate the intravenous administration of test compounds. The animals are allowed to equilibrate for 10 minutes after surgery. Mean arterial pressure is continuously measured and recorded and heart rate is monitored using the arterial pressure pulse to trigger a cardiotachometer. After baseline parameters are established and recorded, increasing doses (1, 3, 10, 30, 100, 300 and 1000 μg/kg) of the compound of Formula I to be tested are administered intravenously. Maximal changes in the cardiovascular parameters are observed after each dose of the adenosine agonist. Only one compound is administered per rat.

Experiment [3] concerns the target T1, A2 receptor (Rattus norvegicus, UniProt P30543).
T1 construct: using membranes from rat brain striatum; from tissue; host or cells: rat brain striatum membranes
Put plainly: A2 adenosine receptor binding, displacement of 3H-CGS 21680, rat brain striatum membranes. The following applies: 3H-CGS 21680 displacement, rat brain striatum membranes, 25° C., 90 minutes; read-out: Adenosine Receptor Binding Activity/IC50 (nM) A2. How it is done:
Non-specific binding is assessed in the presence of 20 μm 2-chloroadenosine.
(§1) The assays are run in glass test tubes in duplicate at 25° C. Once the membranes are added, the tubes are vortexed and incubated at 25° C. for 60 minutes (A1 assay) or 90 minutes (A2 assay) on a rotary shaker. The assay tubes are vortexed halfway through the incubation and again near the end. The assays are terminated by rapid filtration through 2.4 cm GF/B filters using a Brandel Cell Harvestor. The test tubes are washed three times with cold 50 mM tris-HCl (pH 7.7 or 7.4), with filtration being completed within 15 seconds. The damp filter circles are placed in glass scintillation vials filled with 10 ml of Aquasol II (New England Nuclear). The vials are allowed to shake overnight on a rotary shaker and are placed into a liquid scintillation analyzer for two minute counts. IC50 values for receptor binding, i.e. the concentration at which a compound of Formula I displaced the radiolabeled standard, are obtained using a curve-fitting computer program (RS/1, Bolt, Beranek and Newman, Boston, Mass.).
In general terms: Loss of bound radioactivity is the signal in a displacement assay; it reports binding, not function.

In experiment [4] the target is T2, A1 receptor (Rattus norvegicus, UniProt P25099).
T2 construct: using a membrane preparation of whole rat brain; from tissue; host or cells: whole rat brain membranes
T2 sequence (P25099 1-326): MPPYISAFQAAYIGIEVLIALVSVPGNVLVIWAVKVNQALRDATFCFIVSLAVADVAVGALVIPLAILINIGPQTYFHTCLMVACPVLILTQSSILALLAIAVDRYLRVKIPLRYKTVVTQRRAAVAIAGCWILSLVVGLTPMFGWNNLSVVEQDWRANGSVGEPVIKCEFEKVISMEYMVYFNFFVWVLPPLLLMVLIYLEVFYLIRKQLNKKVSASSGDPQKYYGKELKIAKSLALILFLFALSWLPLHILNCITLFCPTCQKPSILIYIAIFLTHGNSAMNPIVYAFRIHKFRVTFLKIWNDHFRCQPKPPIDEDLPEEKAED
Description: A1 adenosine receptor binding, displacement of 3H-CHA, whole rat brain membranes. The settings on record: 3H-CHA displacement, 25° C., 60 minutes. As to the method: Non-specific binding is assessed in the presence of 1 mM theophylline.
as §1

Experiment [5] concerns rat adipocytes. Put plainly: Antilipolytic activity in rat adipocytes (in vitro lipolysis assay, glycerol production). Type of experiment: cell-based. The settings on record: for EC50: read-out: EC50 (50% inhibition of glycerol production). How it is done: Adipose tissue is removed from anesthetized rats and rinsed twice in incubation medium (2.09 g sodium bicarbonate and 0.04 g EDTA, disodium salt, in 1 L Krebs buffer). Each rat (300-350g) yields approximately 4 ml of adipose tissue. The adipose tissue (35 mL) is cut into small pieces with scissors and washed with incubation medium (50 mL). The mixture is poured into the barrel of a 50 mL syringe to which is attached a short piece of clamped tubing instead of a needle. The aqueous phase is allowed to drain. A second wash with incubation medium is passed through the syringe. The tissue is added to 50 mL of collagenase solution (collagenase (90 mg), bovine serum albumin (BSA) (500 mg), and 0.1 M calcium chloride solution (1 mL), in incubation medium (50 mL)) in a 1 L bottle. The mixture is shaken in an environmental at 37 ° C. for about 60 minutes under an atmosphere of 95% oxygen/5% carbon dioxide to effect digestion of the tissue. The dispersed cells are poured through 2 layers of cheese cloth into a 100 mL plastic beaker. The undigested clumps in the cloth are rinsed once with incubation medium (20 mL). The cells in the beaker are centrifuged in 2 plastic tubes for 30 seconds at room temperature at 300 rpm. The aqueous phase is aspirated from beneath the loosely packed layer of floating fat cells and discarded. The adipocytes are gently poured into a 250 mL plastic beaker containing 100 mL of rinse solution (1 g BSA per 100 mL incubation medium). After gentle stirring the centrifugation step is repeated. Another wash with rinse solution follows. The cells are pooled and their volume is estimated with a graduated cylinder. The adipocytes are diluted in twice their volume of assay buffer (incubation medium (120 mL), BSA (1.2 g), pyruvic acid (13 mg)).
The assay is performed in 20 mL plastic scintillation vials and the total assay volume is 4.2 ml. Assay buffer (2.5 mL), diluted adipocytes (1.5 mL), and a solution of the compound to be tested (12.3 μL) adenosine agonist (12.3 μL; varying concentration) is incubated in the environmental shaker for 15 minutes, then the reaction is started with norepinephrine solution (41.2 μL) (10 nM, in a carrier solution containing water (100 mL), BSA (4 mg), and 0.1 M EDTA (20 μL))and adenosine deaminase (1 μg/ml, 41.2 μL). After sixty minutes in the shaker the reaction is terminated by putting the vials on ice. […] The hard lipid layer is removed by aspiration and the aqueous layer is assayed for glycerol (400 μL of sample). The positive control is done in the absence of any adenosine agonist, substituting water in place of the solution to be tested.

[6] abbreviates: Sus scrofa, read-out: Vasorelaxation in Swine Coronary Artery/IC50 (μM).
Setting [7] is: 50% reduction in tension of rings contracted with 3 μM PGF2a, read-out: Vasorelaxation in Swine Coronary Artery/IC50.

The structures appear in SMILES notation. Read-outs that look alike come from different tables or passages of the source. Some results are limits rather than exact numbers.

T1 sequence (P30543 whole entry): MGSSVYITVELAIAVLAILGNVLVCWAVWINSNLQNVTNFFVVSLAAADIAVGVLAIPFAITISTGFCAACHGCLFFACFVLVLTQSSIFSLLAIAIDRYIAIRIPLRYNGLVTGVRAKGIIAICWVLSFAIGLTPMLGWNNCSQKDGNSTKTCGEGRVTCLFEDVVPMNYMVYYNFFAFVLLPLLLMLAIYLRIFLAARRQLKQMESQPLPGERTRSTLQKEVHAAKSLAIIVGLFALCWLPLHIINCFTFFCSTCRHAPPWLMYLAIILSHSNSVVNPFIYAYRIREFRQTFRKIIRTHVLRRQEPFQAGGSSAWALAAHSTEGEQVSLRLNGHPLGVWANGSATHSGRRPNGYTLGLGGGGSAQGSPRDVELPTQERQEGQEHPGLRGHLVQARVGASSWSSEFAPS

As for `CCNC(=O)[C@H]1C[C@@H](n2cnc3c(NCCc4cccs4)ccnc32)[C@H](O)[C@@H]1O` (racemic) [Example 30, (±)-N6-[1-(thiopheny-2-yl)ethan-2-yl]-N′-1-deazaaristeromycin-5′-N-ethyl carboxamide], the results for the IC50 in experiment [1] (setting [6]), in experiment [3] and in experiment [4] were 12.1 µM, greater than 1000 nM and 562 nM, respectively. Also, the “Anesthetized Rat HR/ED25” value in experiment [2] is greater than 10 µg/kg. For the same compound, the “Anesthetized Rat MAP/ED25” value in experiment [2] was found to be 6 µg/kg.
On to `OC[C@H]1O[C@@H](n2cnc3c(N[C@@H]4CCCC[C@H]4c4cccs4)ncnc32)[C@H](O)[C@@H]1O` (relative stereo) [Example 7, N^6-[trans-2-(thiophen-2-yl)-cyclohex-1-yl]adenosine], for which the IC50 in experiment [1] (setting [6]) is 4 µM; in experiment [3] it was 28 nM; in experiment [4], 3.5 nM. Besides, the “Anesthetized Rat HR/ED25” value in experiment [2] was found to be 18 µg/kg. The “Anesthetized Rat MAP/ED25” value in experiment [2] amounted to 6 µg/kg.
Turning to `OC[C@H]1O[C@@H](n2cnc3c(N[C@@H]4CC=CC[C@H]4c4ccsc4)ncnc32)[C@H](O)[C@@H]1O` (relative stereo) [Example 8, N^6-[trans-2-(thiophen-3-yl)-cyclohex-4-en-1-yl]adenosine], in experiment [2], the “Anesthetized Rat HR/ED25” value worked out at 23 µg/kg and the “Anesthetized Rat MAP/ED25” value turned out to be 10 µg/kg. Moreover, the IC50 in experiment [3] came to 138 nM. In experiment [4], this compound showed an IC50 of 5 nM.
Taken in the same sequence, the figures for `CCNC(=O)[C@H]1C[C@@H](n2cnc3c(NCCc4scnc4C)ncnc32)[C@H](O)[C@@H]1O` (relative stereo) [Example 24, (±)-N^6-[2-(4″-methyl-5″-thiazolyl)ethyl]carbocydic adenosine-5′-N-ethyl carboxamide] were greater than 10 µg/kg, 6 µg/kg, greater than 1000 nM and greater than 1000 nM.
One may read the inhibition as how much of the control response was suppressed. Take `CCNC(=O)[C@H]1O[C@@H](n2cnc3c(N)nc(NCCc4ccc(CCC(=O)O)cc4)nc32)[C@H](O)[C@@H]1O` [CGS21680, 2-[[2-[4-[2-carboxethyl)phenyl]ethyl]amino]-N-ethylcarboxamidoadenosine]: the IC50 in experiment [1] (Sus scrofa, read-out: Vasorelaxation (IC50)) was determined as 0.08 µM. For the same compound, the inhibition at 1 µM in experiment [5] (Rattus norvegicus, Adipocyte, read-out: % Inhibition of glycerol production, 1 μM) came out at 0%. The antilipolytic activity entry in experiment [5] (statement in words) is listed as “do not exhibit antilipolytic activity”.
For `OC[C@H]1O[C@@H](n2cnc3c(NCCNc4nc5ccccc5s4)ncnc32)[C@H](O)[C@@H]1O` [Example 9, N^6-[2-(2′-aminobenzothia-zolyl)ethyl]adenosine], the IC50 in experiment [1] (setting [7]) is 11.9 µM; in experiment [3], 1000 nM; in experiment [4] it was 4 nM. The “Anesthetized Rat HR/ED25” value in experiment [2] stood at 4 µg/kg. Besides, in experiment [2], the “Anesthetized Rat MAP/ED25” value was 5 µg/kg.
As for `Cc1ncsc1CCNc1ncnc2c1ncn2[C@@H]1O[C@H](CO)[C@@H](O)[C@H]1O` [Example 12, N^6-[2-(4′-methylthiazol-5′-yl)-ethyl]adenosine], the figures for the IC50 in experiment [1] (setting [7]), in experiment [3] and in experiment [4] were 0.5 µM, 224 nM and 23 nM, respectively. Also, the “Anesthetized Rat HR/ED25” value in experiment [2] was determined as 17 µg/kg. The “Anesthetized Rat MAP/ED25” value in experiment [2] worked out at 4 µg/kg.
Consider `OC[C@H]1O[C@@H](n2cnc3c(NCCc4nccs4)ncnc32)[C@H](O)[C@@H]1O` [Example 13, N^6-[2-(2′-thiazolyl)ethyl]-adenosine], for which the IC50 in experiment [1] (setting [7]) turned out to be 0.24 µM; in experiment [3] it was 191 nM; in experiment [4], 41 nM. For the same compound, the “Anesthetized Rat HR/ED25” value in experiment [2] was greater than 10 µg/kg. In experiment [2], the “Anesthetized Rat MAP/ED25” value was 3 µg/kg.
As to `C[C@H](Cc1cc2ccccc2s1)Nc1ncnc2c1ncn2[C@@H]1O[C@H](CO)[C@@H](O)[C@H]1O` [Example 15, N^6-[(R)-1-methyl-2-(2′benzo-[b]-thiophenyl)ethyl]adenosine], the IC50 in experiment [1] (setting [6]) worked out at 2.45 µM; in experiment [4], 4.07 nM. For the same compound, in experiment [2], the “Anesthetized Rat HR/ED25” value was determined as 1.4 µg/kg. Also, the “Anesthetized Rat MAP/ED25” value in experiment [2] is 1.5 µg/kg.
Regarding `Cc1csc(CNc2ncnc3c2ncn3[C@@H]2O[C@H](CO)[C@@H](O)[C@H]2O)n1` [Example 18, N^6-[2-(4′-methyl-2′-thiazolyl)-methyl]adenosine], the IC50 in experiment [1] (setting [7]) was 0.46 µM; in experiment [3], 52 nM; in experiment [4], 166 nM. The “Anesthetized Rat HR/ED25” value in experiment [2] is greater than 10 µg/kg. In addition, the “Anesthetized Rat MAP/ED25” value in experiment [2] came out at 2 µg/kg.
Regarding `CCNC(=O)[C@H]1O[C@@H](n2cnc3c(NCCNc4nc5ccccc5s4)ncnc32)[C@H](O)[C@@H]1O` [Example 23], the figures for the IC50 in experiment [1] (setting [7]), in experiment [3] and in experiment [4] were 4.4 µM, 891 nM and 0.32 nM, respectively. In addition, in experiment [2], the “Anesthetized Rat HR/ED25” value is 7 µg/kg. The “Anesthetized Rat MAP/ED25” value in experiment [2] stood at 6 µg/kg.
A word on the EC50: it is the concentration needed to bring the measured effect to its halfway point. Regarding `CO[C@@H]1[C@H](O)[C@@H](CO)O[C@H]1n1cnc2c(N[C@H](C)Cc3ccc(Cl)s3)ncnc21` [Example 48, N^6-[2-(5-chloro-2-thienyl)-(1R)-1-methylethyl]-2′-O-methyladenosine], the values for the IC50 in experiment [3] and in experiment [4] were 1440 nM and 8.35 nM, respectively. Moreover, in experiment [5] (Adipocyte, rat adipocytes, norepinephrine-stimulated), the EC50 came out at 1.86 nM.
On to `CCNC(=O)[C@H]1O[C@@H](n2cnc3c(N)ncnc32)[C@H](O)[C@@H]1O` [NECA, N-ethylcarboxamido-adenosine], for which the EC50 in experiment [5] (Rattus norvegicus, Adipocyte) was 2.5 nM.
For `C[C@H](Cc1ccccc1)Nc1ncnc2c1ncn2[C@@H]1O[C@H](CO)[C@@H](O)[C@H]1O` [R-PIA, R-phenylisopropyladenosine, reference compound], in experiment [1] (literature compounds, Table V, methods as above, unit inferred, read-out: Vasorelaxation (IC50)), the IC50 amounted to 0.76 µM. In experiment [5] (rat adipocytes, norepinephrine-stimulated), the EC50 was determined as 1 nM.

The values are drawn from patent US6392049B1, “Process for preparing 2,4-dihydroxypyridine and 2,4-dihydroxy-3-nitropyridine” (Aventis Pharmaceuticals Inc., priority 1996, dated 2002).
